Assay results: US20220195046A1, “METHODS OF TREATING TUMOR” (Bristol-Myers Squibb Company, priority 2019, published 2022)

Tests used:
[1] = test system: unresectable stage III or IV melanoma; assay: Clinical trial NCT01844505: nivolumab, nivolumab plus ipilimumab, or ipilimumab in previously untreated melanoma; type: in vivo, human; conditions: 4-year follow up, first-line, advanced melanoma
Protocol: In NCT01844505, 945 previously untreated patients with unresectable stage III or IV melanoma were randomly assigned in a 1:1:1 ratio to receive one of the following regimens: (i) 3 mg of nivolumab per kilogram of body weight every 2 weeks (plus ipilimumab-matched placebo) (n=316, 313 treated); (ii) 1 mg of nivolumab per kilogram every 3 weeks plus 3 mg of ipilimumab per kilogram every 3 weeks for 4 doses, followed by 3 mg of nivolumab per kilogram every 2 weeks for cycle 3 and beyond (n=314, 313 treated); or 3 mg of ipilimumab per kilogram every 3 weeks for 4 doses (plus nivolumab-matched placebo) (n=315, 311 treated) (FIG. 14). Both nivolumab and ipilimumab were administered by means of intravenous infusion.
Randomization was stratified according to tumor PD-L1 status (positive vs. negative or indeterminate), BRAF mutation status (V600 mutation-positive vs. wild-type), and American Joint Committee on Cancer metastasis stage (M0, M1a, or M1b vs. M1c). Treatment continued until disease progression (as defined by RECIST, version 1.1), development of unacceptable toxic events, or withdrawal of consent.
Progression-free survival and overall survival were coprimary endpoints. Secondary endpoints included objective response rate, tumor PD-L1 expression, and health related quality of life. Exploratory endpoints included safety, pharmacokinetics, and biomarker analysis.

[2] = test system: PD-L1, PD-1, T-cell markers (CD3, CD4, CD8, FOXP3), macrophage markers (CD68, CD163); assay: IHC biomarker assessment of pretreatment HCC tumor samples vs BOR and overall survival (NCT01658878); design: species or system human; conditions: for Objective response rate, % (95% CI): BOR
Protocol: Pretreatment tumor samples (fresh or archival) were obtained from patients in the escalation and expansion phases receiving 3 mg/kg nivolumab (saved for IHC) or 0.1-10 mg/kg nivolumab (saved for RNA sequencing).
Samples were analyzed using (i) IHC to assess PD-L1, PD-1, T-cell markers (CD3, CD4, CD8, FOXP3), and macrophage markers (CD68, CD163); and (ii) RNA sequencing to assess tumor inflammatory signatures. Biomarkers were assessed for their association with clinical outcomes including BOR by blinded independent review committee (per RECIST v1.1) and overall survival. Analyses were performed using the standard Limma and Cox regression framework.

[3] = monotherapy, every two weeks; cited from earlier work
[4] = test system: unresectable stage III or IV melanoma without a BRAF mutation; assay: Clinical trial NCT01721772: nivolumab vs dacarbazine in previously untreated melanoma without BRAF mutation; type: in vivo, human; conditions: 3-year follow up, previously untreated BRAF wildtype advanced melanoma
Protocol: The present example reports data collected from two clinical trials: NCT01721772 and NCT01844505. In NCT01721772, 418 subjects with confirmed, unresectable, previously untreated stage III or IV melanoma without a BRAF mutation were randomly assigned in a 1:1 ratio to receive by means of intravenous infusion either 3 mg of nivolumab per kilogram of body weight every 2 weeks, plus a dacarbazine-matched placebo every 3 weeks (n=210, 206 treated), or 1000 mg of dacarbazine per square meter of body-surface area every 3 weeks, plus a nivolumab-matched placebo every 2 weeks (n=208, 205 treated). Randomization was stratified according to tumor PD-L1 status (positive vs. negative or indeterminate) and metastasis stage (M0, M1a, or M1b vs. M1c, defined according to the tumor-node-metastasis system of the American Joint Committee on Cancer and the International Union against Cancer).
The primary end point was overall survival. Secondary end points included investigator-assessed progression-free survival, objective response rate, tumor PD-L1 expression, and health related quality of life. Exploratory endpoints included safety, pharmacokinetics, and biomarker analysis.

[5] = test system: advanced hepatocellular carcinoma (HCC); assay: Clinical Trial NCT01658878: nivolumab in advanced hepatocellular carcinoma, SOR-naive and SOR-experienced cohorts 1 and 2; type: in vivo, human
Protocol: Cohort 1 comprised 80 SOR-naïve subjects, and Cohort 2 comprised 182 SOR-experienced subjects. Eleven subjects in Cohort 1 and 37 subjects in Cohort 2 were administered 0.1-10 mg/kg nivolumab as part of a dose-escalation analysis. Sixty-nine subject in Cohort 1 and 145 subjects in cohort 2 were administered 3 mg/kg nivolumab as part of a dose-expansion analysis. Following initial treatment, 154 subjects in Cohort 2 (9 subject from the dose-escalation study and 145 subjects from the dose-expansion study) were administered maintenance nivolumab at 3 mg/kg.
The primary endpoints of Clinical Trial NCT01658878 were safety and tolerability (dose-escalation) as well as objected response rate (ORR; dose-expansion). Secondary endpoints included ORR (dose-escalation), disease control rate, time to response, duration of response, and overall survival. Exploratory endpoints included biomarker assessments, which are discussed here. […]

[6] = tumor cell PD-L1 <1%, SOR-experienced population n = 137
[7] = tumor cell PD-L1 <1%, overall population (SOR-naïve and SOR-experienced) n = 195
[8] = tumor cell PD-L1 ≥1%, SOR-experienced population n = 137
[9] = tumor cell PD-L1 ≥1%, overall population (SOR-naïve and SOR-experienced) n = 195

## ipilimumab
[1]
  ORRb, % (95% CI): 19%
  median OS, months (95% CI): 19.9 (16.9-24.6) months
  median PFS, months (95% CI): 2.9 (2.8-3.2) months

## nivolumab
[1]
  ORRb, % (95% CI): 45%
  median OS, months (95% CI): 36.9 (28.3—NR) months
  median PFS, months (95% CI): 6.9 (5.1-10.2) months
[2]; [6]
  Complete response, n (%): 4 (3.6) n (%)
  Partial response, n (%): 10 (9) n (%)
  Progressive disease, n (%): 42 (38.1) n (%)
  Stable disease, n (%): 49 (44.5) n (%)
  Objective response rate, % (95% CI): 12.7 (7.6-20.3) %
[2]; [7]
  Complete response, n (%): 6 (3.7) n (%)
  Partial response, n (%): 19 (11.9) n (%)
  Progressive disease, n (%): 59 (37.1) n (%)
  Stable disease, n (%): 66 (41.5) n (%)
  Objective response rate, % (95% CI): 15.7 (10.8-22.2) %
[2]; [8]
  Complete response, n (%): 1 (3.7) n (%)
  Partial response, n (%): 6 (22.2) n (%)
  Progressive disease, n (%): 10 (37) n (%)
  Stable disease, n (%): 8 (29.6) n (%)
  Objective response rate, % (95% CI): 25.9 (12.9-44.9) %
[2]; [9]
  Complete response, n (%): 2 (5.5) n (%)
  Partial response, n (%): 8 (22.2) n (%)
  Progressive disease, n (%): 15 (41.6) n (%)
  Stable disease, n (%): 9 (25) n (%)
  Objective response rate, % (95% CI): 27.7 (15.7-44.1) %
[3]
  maximum tolerated dose (MTD), not reached at highest dose: > 10 mg/kg
[4]
  ORR, % (95% CI): 43%
  median OS, months (95% CI): 37.5 (25.5—NR) months
  median PFS, months (95% CI): 5.1 (3.5-12.2) months
[5]
  ORR: 14.3%
  subjects with duration of response (DOR) of at least 12 months: 50%

## CN(C)/N=N/c1[nH]cnc1C(N)=O [dacarbazine]
[4]
  ORR, % (95% CI): 14%
  median OS, months (95% CI): 11.2 (9.6-13.0) months
  median PFS, months (95% CI): 2.2 (2.1-2.5) months
